These results are taken from US4226883A, “Carbamate derivatives and method for manufacture thereof” (priority 1974, dated 1980).

For data set [1], the target named is cholinesterase (ChE), susceptible strain. The experiment in a line: Inhibition of cholinesterase (acetylthiocholine method), susceptible strain enzyme. Format: biochemical, green rice leafhopper, Nephotettix cincticeps. To be noted: for IC50: 50% inhibition concentration, 30° C. 30 min with inhibitor, read-out: Inhibition of Cholinesterase I50 (M) S. As for the experimental part: The activity of ChE was performed by the acethyethiocholine method [Ellman (1961), Biochemical Pharmacology 7: 88-95].
[…]. After centrifuged (30,000 g, 10 min.), the supernatant was used as the source of ChE.
(§1) (2) Inhibition: 1.0 ml of enzyme solution was incubated with 0.1 ml of inhibitor which diluted with acetone at 30° C. for 30 min. ((2) solution).
(3) Determination of ChE activity: 1.0 ml of acetylthiochline (3.5/2×10^-2 M), 1.0 ml of DTNB (5,5'-dithiobis-2-nitrobenzoic acid, 2.5×10^-4 M) and 4.0 ml of phosphate buffer (1/15 M, pH 7.4) were added to the (2) solution and incubated at 30° C. for 10 min. After incubation, […] of eserine (2×10^-3 M) was added in order to stop the enzyme reaction and the optical density of the yellow solution was measured at 412 mμ on the spectrophotometer.

The test system of data set [2] is cholinesterase (ChE), resistant strain. Format: biochemical, green rice leafhopper, Nephotettix cincticeps. The following applies: for Inhibition of Cholinesterase R/S (resistant ratio): ratio of the resistant strain to the susceptible strain (I50), 30 min; for IC50 / rate of inhibition (%) in 10^-3 M, R: resistant strain; for IC50: 50% inhibition concentration, 30° C. 30 min with inhibitor, read-out: Inhibition of Cholinesterase I50 (M) R. As for the experimental part: After centrifuged (30,000 g, 10 min.), the supernatant was used as the source of ChE.
as §1
(3) Determination of ChE activity: 1.0 ml of acetylthiochline (3.5/2×10^-2 M), 1.0 ml of DTNB (5,5'-dithiobis-2-nitrobenzoic acid, 2.5×10^-4 M) and 4.0 ml of phosphate buffer (1/15 M, pH 7.4) were added to the (2) solution and incubated at 30° C. for 10 min.

For data set [3], the system named is resistant green rice leafhoppers (R). The following applies: 1440 min; for Insecticidal Activity R/S (resistant ratio): ratio of the resistant strain to the susceptible strain (LD50). As for the experimental part:
(1) A 20-mg portion of a given test compound was weighed out and dissolved in 10 ml of acetone. The resultant solution was diluted at proper times with acetone.
(2) With a micro-syringe, the acetone solution of the test compound was topically applied to the thoracic region of female green rice leafhoppers at a fixed dose of 0.2 μl per head.
(3) The female green rice leafhoppers thus treated were placed in a plastic cup prepared in advance (measuring 7 cm in diameter and 3.5 cm in depth and containing rice seeds) and kept at a constant temperature of 26±1° C. After 24 hours' standing, the dead insects were counted.
In the case of a mixed insecticide, the LD50 was shown as a total dosage.

In data set [4] the test system is green rice leafhoppers of the strain RN. Briefly: Test Example 3: dust spray test (20 mesh metal gauze cylinder). To be noted: for death ratio (%), mixture with Compound No. 1: dust mixed with 1; for death ratio (%), mixture with Compound No. 6*: dust mixed with 6*; for death ratio (%), mixture with Compound No. 24*: dust mixed with 24*; for death ratio (%), mixture with Compound No. 35*: dust mixed with 35*; for death ratio (%), mixture with Compound No. 40*: dust mixed with 40*; for death ratio (%), mixture with Compound No. 49*: dust mixed with 49*; for death ratio (%), mixture with Compound No. 81*: dust mixed with 81*; for death ratio (%), mixture with Compound No. 118*: dust mixed with 118*; for death ratio (%), mixture with Carbofuran: dust mixed with Carbofuran; for Effect of individual compound (RN), death ratio (%) (Table 9): dust, compound alone, RN strain. Format: in vivo, Nephotettix cincticeps. As for the experimental part:
The insecticides in the form of dust were tested for insecticidal activity.
The test for insecticidal activity was performed by the following procedure. […] The dust of a test compound (pulverized by means of a shaking pulverizer made by Taira Kosakusho, Ltd.) was applied onto the tube contents at a prescribed rate by spraying from outside the metal gauze by means of a bell-jar duster. The dust of the test compound was prepared uniformly mixing 2 parts of the dust of the individual compound or 1 part each of the dusts of the mixture components (total 2 parts) and 98 parts of a carrier obtained by mixing talc and clay in equal volumes.

Setting [5] is: 2% dust, 100 mg, 24 hr, read-out: Mortality (%) after 24 hr., 100 mg Spray (Table 7).
Where [6] appears, read: 2% dust, 250 mg, 24 hr, read-out: Mortality (%) after 24 hr., 250 mg Spray (Table 7).

Where two headings read alike, the source gives them in different places.

For `C#CCOc1cccc(OC(=O)NC)c1` [Compound 100, reference compound], the IC50 in data set [1] was determined as 3.5e-05 M. Also, in data set [2], the “Inhibition of Cholinesterase R/S (resistant ratio)” value (“Inhibition … (resistant ratio)” below) was 24.3 and the IC50 came to 0.00085 M.
With `CNC(=O)Oc1ccc(SC)c(C)c1` [Compound 135, reference compound], the IC50 in data set [1] came out at 1e-05 M. In addition, in data set [2], the “Inhibition … (resistant ratio)” value was determined as 3.5 and the IC50 was determined as 3.5e-05 M.
`CCCNC(=O)Oc1ccccc1` [Compound 142, phenyl-N-n-propylcarbamate]: in data set [1], the “rate of inhibition (%) in 10^-3 M, S” value amounted to 12.0% and the IC50 was above 0.001 M. In addition, in data set [2], the “Inhibition … (resistant ratio)” value is given as below 0.6 and the IC50 stood at 0.00066 M.
On to `C=CCNC(=O)Oc1cccc(C(C)CCC)c1` (stereo not shown) [Compound 23], for which, in data set [2], the “Inhibition … (resistant ratio)” value was determined as 0.3 and the IC50 was 1.3e-06 M. Further, the “Insecticidal Activity R/S (resistant ratio)” value in data set [3] was determined as 0.7.
For `C=CCOc1cccc(OC(=O)NC)c1` [Compound 98, reference compound], in data set [1], the IC50 is 4.1e-06 M. Moreover, in data set [2], the “Inhibition … (resistant ratio)” value came out at 87.8 and the IC50 came out at 0.00036 M.
For `CNC(=O)Oc1ccccc1` [Compound 140, reference compound], the IC50 in data set [1] was determined as 0.00013 M. In addition, in data set [2], the “rate of inhibition (%) in 10^-3 M, R” value is given as 42.5% and the IC50 was above 0.001 M.
On to `CNC(=O)Oc1ccccc1N(C)C` [Compound 106, reference compound], for which the IC50 in data set [1] came to 9.6e-06 M. For the same compound, in data set [2], the “Inhibition … (resistant ratio)” value is listed as 13.5 and the IC50 worked out at 0.00013 M.
Taken in the same sequence, the figures for `CCCCNC(=O)Oc1cc(C)cc(C(C)C)c1` [Compound 48] were above 0.001 M, below 0.09 and 8.8e-05 M.
As to `CCNC(=O)Oc1cccc(OCC)c1` [Compound 93], the IC50 in data set [1] is 0.00044 M. Also, in data set [2], the “Inhibition … (resistant ratio)” value came to 0.8 and the IC50 was found to be 0.00035 M.
With `CCOc1ccccc1OC(=O)NC` [Compound 79, reference compound], in data set [1], the IC50 was determined as 2.5e-05 M. In addition, in data set [2], the “Inhibition … (resistant ratio)” value was 12.0 and the IC50 is 0.0003 M. In data set [4] (Table 9, RN), the “death ratio (%), mixture with Compound No. 1” value is 0%; the “death ratio (%), mixture with Compound No. 6*” value amounted to 0%; the “death ratio (%), mixture with Compound No. 24*” value was found to be 0%; the “death ratio (%), mixture with Compound No. 35*” value is 0%. Also, in data set [4] (Table 9, RN), the “death ratio (%), mixture with Compound No. 40*” value is listed as 10.0%; the “death ratio (%), mixture with Compound No. 49*” value came to 0%; the “death ratio (%), mixture with Compound No. 81*” value was 5.0%; the “death ratio (%), mixture with Compound No. 118*” value was found to be 25.0%. Moreover, the “death ratio (%), mixture with Carbofuran” value in data set [4] (Table 9, RN) is on record as 40.0%. For the same compound, in data set [4], the “Effect of individual compound (RN), death ratio (%) (Table 9)” value is 0%.
Regarding `CCCCNC(=O)Oc1cc(C)cc(C)c1` [Compound 43], the IC50 is 0.00068 M in data set [1] and 2.7e-05 M in data set [2]. Besides, in data set [2], the “Inhibition … (resistant ratio)” value is listed as 0.04.
On to `CCNC(=O)Oc1ccccc1` [Compound 141, phenyl-N-ethylcarbamate], for which, in data set [1], the “rate of inhibition (%) in 10^-3 M, S” value came to 30.4% and the IC50 is above 0.001 M. Further, in data set [2], the “rate of inhibition (%) in 10^-3 M, R” value was 43.4% and the IC50 was above 0.001 M.
On to `C=CCNC(=O)Oc1ccccc1` [Compound 144, phenyl-N-allylcarbamate], for which, in data set [1], the “rate of inhibition (%) in 10^-3 M, S” value is recorded as 10.00% and the IC50 is above 0.001 M. Further, in data set [2], the “Inhibition … (resistant ratio)” value is reported as below 0.5 and the IC50 was 0.00052 M.
For the compound `CCCCNC(=O)Oc1ccc(C)c(C)c1` [Compound 38], the IC50 in data set [1] came out at 0.00056 M. In data set [2], the “Inhibition … (resistant ratio)” value was 0.04 and the IC50 amounted to 2e-05 M.
Take `CNC(=O)Oc1ccc(C)c(C)c1` [Compound 35, 3,4-dimethylphenyl-N-methylcarbamate, reference compound]: the “Insecticidal Activity R/S (resistant ratio)” value in data set [3] came to 4.7. The mortality (as a rule, the share of the test organisms that died) at 100 mg/cylinder in data set [4] (24 h, read-out: Mortality (%) after 24 hr., 100 mg Spray (Table 7)) worked out at 0%; in data set [4] (24 h, read-out: Mortality (%) after 24 hr., Spray Volume 100 mg), 0%. Further, the mortality at 250 mg/cylinder in data set [4] (24 h, read-out: Mortality (%) after 24 hr., 250 mg Spray (Table 7)) is 0%; in data set [4] (24 h, read-out: Mortality (%) after 24 hr., Spray Volume 250 mg), 0%.
`CNC(=O)Oc1ccccc1OC(C)C` [Compound 81, 2-isopropoxyphenyl-N-methylcarbamate, reference compound]: in data set [3] (compound alone), the “Effect of individual compound, LD50 (μ g/g) (Table 5-2)” value was above 100 μ g/g. Further, in data set [4] (Table 9, RN), the “death ratio (%), mixture with Compound No. 1” value came out at 0%; the “death ratio (%), mixture with Compound No. 6*” value turned out to be 5.0%; the “death ratio (%), mixture with Compound No. 24*” value came out at 0%; the “death ratio (%), mixture with Compound No. 35*” value is on record as 15.0%. For the same compound, in data set [4] (Table 9, RN), the “death ratio (%), mixture with Compound No. 40*” value was determined as 20.0%; the “death ratio (%), mixture with Compound No. 49*” value amounted to 0%; the “death ratio (%), mixture with Compound No. 81*” value is given as 10.0%; the “death ratio (%), mixture with Compound No. 118*” value worked out at 57.5%. For the same compound, the “death ratio (%), mixture with Carbofuran” value in data set [4] (Table 9, RN) amounted to 30.0%. For the same compound, the “death ratio (%), mixture with Methomyl” value in data set [4] (Table 9, dust mixed with Methomyl, RN) was 35.0%. For the same compound, the “Effect of individual compound (RN), death ratio (%) (Table 9)” value in data set [4] worked out at 0%.
As to `C=CCNC(=O)Oc1cccc(C)c1` [Compound 28, 3-methylphenyl-N-allylcarbamate], in data set [3], the “Insecticidal Activity R/S (resistant ratio)” value was 1.8. In addition, in data set [4] (setting [5]), the mortality at 100 mg/cylinder was 60%. In addition, in data set [4] (setting [6]), the mortality at 250 mg/cylinder amounted to 100%.
As to `CNC(=O)Oc1ccccc1NC(C)C` [Compound 110, reference compound], in data set [1], the IC50 turned out to be 2.3e-06 M. Also, in data set [2], the “Inhibition … (resistant ratio)” value is reported as 73.9 and the IC50 is 0.00017 M.
With `CCCCNC(=O)Oc1cccc(C)c1` [Compound 27], the values for the IC50 in data set [1] and in data set [2] were above 0.001 M and 0.00027 M, respectively. The “Inhibition … (resistant ratio)” value in data set [2] was below 0.3.
With `CCNC(=O)Oc1ccc(C)c(C)c1` [Compound 36, 3,4-dimethylphenyl-N-ethylcarbamate], in data set [3], the “Insecticidal Activity R/S (resistant ratio)” value is 3.3. Also, the mortality at 100 mg/cylinder in data set [4] (setting [5]) worked out at 55%. Also, in data set [4] (setting [6]), the mortality at 250 mg/cylinder came to 80%.
`CCCCNC(=O)Oc1cccc(C(C)C)c1` [Compound 14]: in data set [1], the IC50 came to 7.4e-05 M. Besides, in data set [2], the “Inhibition … (resistant ratio)” value stood at 0.2 and the IC50 was found to be 1.7e-05 M.
For `C=CCOc1ccccc1OC(=O)NC` [Compound 88, reference compound] the same measures were 7e-06 M, 15.7 and 0.00011 M.
As to `C#CCOc1ccccc1OC(=O)NC` [Compound 90, reference compound], the IC50 in data set [1] came out at 8.2e-06 M. In addition, in data set [2], the “Inhibition … (resistant ratio)” value stood at 9.6 and the IC50 came to 7.9e-05 M.
With `CNC(=O)Oc1cc(C)c(C)cc1C` [Compound 59, reference compound], the IC50 was 2.3e-06 M in data set [1] and 5.7e-05 M in data set [2]. Also, the “Inhibition … (resistant ratio)” value in data set [2] is 24.8.
In the case of `CCCCNC(=O)Oc1ccccc1` [Compound 143], in data set [1], the “rate of inhibition (%) in 10^-3 M, S” value was 3.3% and the IC50 is above 0.001 M. For the same compound, in data set [2], the “rate of inhibition (%) in 10^-3 M, R” value turned out to be 46.0% and the IC50 is above 0.001 M.
Take `CCC(C)Oc1ccccc1OC(=O)NC` (stereo not shown) [Compound 86, reference compound]: the IC50 in data set [1] is 2.1e-06 M. In addition, in data set [2], the “Inhibition … (resistant ratio)” value is 31.9 and the IC50 stood at 6.7e-05 M.
